Results as given in patent US20210085703A1, “Compositions and Methods for Preventing or Treating Nephrolithiasis” (SP Nutraceuticals, Inc., priority 2017, published 2021).
Where two headings read alike, the source gives them in different places.

What was measured:
[1] = tested on: calcium oxalate calculi deposition in fecal excreta of D. melanogaster; assay: Drug library screening by D. melanogaster fecal excreta birefringence assay; assay type: in vivo, Drosophila melanogaster; settings: 20 μM candidate compound in fly media with 0.5% (w/v) sodium oxalate; duplicates
Method: To quantify calcium oxalate calculi via D. melanogaster excreta birefringence assay, approximately 20 newly eclosed flies were added to each of 15 vials containing either of the lithogenic diets or standard food medium as a control. Stone forming diets were prepared according to the method discussed above. A glass coverslip (18×18 mm) was suspended from the cotton tube plug to allow for the collection of fecal matter. Following a 14-day incubation period, the coverslip was extracted from each tube and each coverslip was directly imaged by confocal microscopy under polarized light. Control experiments performed in a similar fashion with standard food media. The percent area of birefringence for each coverslip was individually analyzed and quantified using NIH ImageJ software (Particle Analysis function). […] The percentage area of birefringence was quantified and compared birefringence data from control experiments with separately prepared 0.5% sodium oxalate media with no addition of candidate compounds. […] After 7 days of incubation and ingestion of drug candidates, viability of flies was quantitated and all coverslips containing fecal excreta were analyzed for birefringence signal (FIG. 2d).

[2] = tested on: calcium oxalate stone formation in D. melanogaster; assay: Dose response relationship of arbutin and calcium oxalate stone formation (fecal excreta and dissected Malpighian tubules); assay type: in vivo, Drosophila melanogaster
Method: To quantify calcium oxalate calculi via D. melanogaster excreta birefringence assay, approximately 20 newly eclosed flies were added to each of 15 vials containing either of the lithogenic diets or standard food medium as a control. Stone forming diets were prepared according to the method discussed above. A glass coverslip (18×18 mm) was suspended from the cotton tube plug to allow for the collection of fecal matter. Following a 14-day incubation period, the coverslip was extracted from each tube and each coverslip was directly imaged by confocal microscopy under polarized light. Control experiments performed in a similar fashion with standard food media. The percent area of birefringence for each coverslip was individually analyzed and quantified using NIH ImageJ software (Particle Analysis function). In order to measure dose response relationship of arbutin and calcium oxalate stone formation, thirty milliliters of 0.5% (w/v) sodium oxalate media was prepared with […] arbutin. A 10-fold serial dilution was performed to obtain 15 ml of media per dilution. Each dilution was divided into 3 narrow fly vials to yield triplicates. Approximately 20 newly eclosed flies were added to each vial with a glass coverslip (18×18mm) suspended from the cotton via plug to collect fecal matter. After a 14-day incubation period, each coverslip was extracted and stone burden was quantified as described above to observe the dose-response relationship between arbutin concentration and percentage area of birefringence.

[3] = tested on: calcium oxalate stone burden in D. melanogaster fed patient urine; assay: Patient derived urine based calcium oxalate stone induction in D. melanogaster; assay type: in vivo, Drosophila melanogaster
Method: In addition, effect of arbutin on patient derived urine based calcium oxalate stone induction in D. melanogaster was assessed. Urine samples were collected from recurrent calcium oxalate stone forming patients (n=10 patients) and centrifuged at 2500 rpm. One milliter aliquots of supernatant were prepared and stored at −80° C. for further analysis. Ten milliters of standard medium was prepared and thoroughly mixed with 1mL of patient urine, this was separated into two individual narrow vials (5 mL per vial). Approximately 20 newly eclosed flies were added to each vial. A glass coverslip (18×18 mm) was suspended from the cotton vial plug to collect fecal matter. […] Stone burden on each coverslip was quantified via the aforementioned birefringence assay and results were expressed as mean±standard error of mean (SEM). Percentage stone burden were analyzed using one way analysis of variance (ANOVA), (Prism 6, GraphPad Software, Inc., San Diego, Calif., USA) (FIG. 3e).
D. melanogaster incubated in this patient urine based model generated calculi in the same manner as with fly food supplemented with sodium oxalate. […] Various pH's were evaluated in order to recapitulate the pH in human urine at the kidney and bladder (pH 4-6) with a greater reduction in calculi formation observed at pH 7-8 (FIG. 3f, * denotes p<0.05, two-way ANOVA, Scheffe a correction).

[4] = In vitro patient-urine based analysis of arbutin and calcium oxalate interactions (birefringence); parameters: species or system human; settings: 1 mM arbutin, pH7/37° C., 24 hours
Method: 50 μl of recurrent calcium oxalate stone forming patient urine and healthy urine samples were combined with 45 μl of 20 mM 4-(2-hydroxyethyl)-1-piperazineethanesulfonic acid (HEPES) buffer (pH 7-8). 5 μl of 20 mM arbutin was added to each solution to form a 1 mM final concentration of the drug. Immediately after addition of the drug, 5 μl of each sample was spotted on a glass slide and birefringence data was imaged on confocal microscope. Each sample was incubated at 37° C. for 24 hours. 5 μl of the sample was identically collected and reimaged. The percent area of birefringence was data analysed as described above. This experiment was repeated in sodium acetate/acetic acid buffer at pH of 4 to observe the efficacy of arbutin in acidic environments. Reduction of percentage stone reduction was analysed using one way ANOVA. Control experiments were conducted using Quick Fix plus synthetic urine from Spectrum labs Cincinnati, Ohio, USA.

[5] = tested on: HEK293 cells; assay: Cytotoxicity assay (LDH release) of sodium oxalate and arbutin on human kidney epithelial cells; assay type: cell-based; settings: arbutin 1 mM final with oxalate, 30 min incubation
Method: (§1) To assess the cytotoxity of sodium oxalate and arbutin, human embryonic kidney epithelial cells (HEK293; ATCC® CRL-1573™), were cultured in 6-well plate containing 18 mm diameter glass coverslips to 50% confluence. Following aspiration of culture medium, the cells were incubated in a chloride-free solution containing 130 mM Potassium Gluconate, 5 mM Glucose, and 20 mM HEPES (pH 7.4) and 20 μM sodium oxalate for 30 minutes. The treated media was then removed and stored at 4° C. for further analysis. Cells were washed with Cl-free buffer and stained with 20 μM Cell tracker red CMTPX Dye (ThermoFisher Scientific) for 15 mins. Cells were triple washed with Cl-buffer and coverslips were mounted with ProLong® Gold Antifade Mountant with DAPI (ThermoFisher Scientific) without permeabilizing in preparation for confocal microscopy. Samples were imaged using a Nikon A1R+ confocal microscope (1.2 au) with a 20× dry or 60× oil-immersion lens and presented using NIS Elements software (Nikon).
The cytotoxicity of HEK293 cells in sodium oxalate media with or without arbutin was determined by quantifying […] (LDH) content liberated by damaged cells using Cytotoxicity Detection KitPLUS (LDH) (Roche) following the manufacturers instructions. Absorbance readings were taken at 492 nm using BioTek PowerWave HT Microplate Spectrophotometer.

[6] = tested on: HEK293 cells; assay: Cell viability of HEK cells under oxalate conditions with arbutin; assay type: cell-based, human
Method: FIG. 6a) Confocal fluorescence images of HEK293 cells stained with CellTracker Red to label the cell surface and Hoechst to label the nuclei. HEK293 cells were treated with 20 μM sodium oxalate for 30 mins. Birefringence signal was observed within HEK293 cells (white signal). FIG. 6b) Activity of LDH released from HEK293 cells after 30 min incubation with oxalate in the presence or absence of arbutin. FIG. 6c) Cell viability in arbutin treated HEK293 and PC3MLN4 cells over a 3 day period. Green line represents control normalized to 100% at that same timepoint. *** denotes p<0.05, two way ANOVA; Scheffe a correction.
as §1, with “Following aspiration of culture medium, the cells were incubated in a chloride-free solution containing 130 mM Potassium Gluconate, 5 mM Glucose, and 20 mM HEPES (pH 7.4) and 20 μM sodium oxalate for 30 minutes.” left out

[7] = Preliminary NMR studies of arbutin in acidic conditions; assay type: physicochemical; settings: low pH, in solution
Excerpt: Arbutin has been described to readily degrade into the split components D-glucose and HQ (and conjugates) in acidic environments, an enteric coated tablet vehicle could potentially be utilised to bypass hydrolysis by stomach acids and improve oral bioavailability.

[8] = cited from earlier work
[9] = rat; cited from earlier work
[10] = mouse; cited from earlier work
[11] = in vitro or in vivo studies; cited from earlier work

OCC1OC(Oc2ccc(O)cc2)C(O)C(O)C1O [arbutin, hydroquinone β-D-glucopyranoside]
anti-lithogenic activity in library screen (calculi deposition in fecal excreta) [1]: consistently exhibited anti-lithogenic activity
calculi content in MTs ([2]; 32 μM and 512 μM arbutin treatment): decreases in calculi content in MTs
arbutin concentration at which calculi content in fecal excreta significantly decreased ([2]; 0.5% (w/v) sodium oxalate media, 14-day incubation): > 64 µM
IC50 ([2]; Drosophila melanogaster, 336 h, 0.5% (w/v) sodium oxalate media, 14-day incubation, read-out: calculated IC50, calculi content deposited in fecal excreta): 40 µM
calculi deposits in dissected MTs compared to controls ([2]; arbutin at 1 mM in fly media+0.05% sodium oxalate, controls fly media+0.5% oxalate±DMSO): near abrogation of calculi deposits
lowest concentration with anti-lithogenic abilities ([2]; fly media supplemented with sodium oxalate (0.5%)): 64 µM
stone burden via fecal excreta assay in comparison with citrate ([3]; 1 mM final concentration in fly media with patient urine, regardless of pH): significant decrease in stone burden
pH with greater reduction in calculi formation ([3]; 1 mM in fly media with patient urine, various pHs): 7-8 pH
difference in birefringence events in control, healthy urine samples [4]: not significant
birefringence events in nephrolithiasis patient urine samples ([4]; n=3): significant reduction in birefringence events
LDH activity compared to arbutin treatment alone [5]: no impact
cell viability compared to arbutin treatment alone ([6]; arbutin 1 mM final with oxalate, HEK cells): no impact
effect on oxalate induced loss of cell viability ([6]; arbutin 1 mM final, HEK cells under 0.1% calcium oxalate conditions): ameliorated this effect
stability in acidic conditions (NMR) [7]: stable
administered arbutin dose retrieved in the urine as HQ conjugates ([8]; human, 4 hrs following an oral dose): approximately 70%
absorption from the GI tract ([8]; oral): heavily absorbed from the GI tract
acute and chronic toxicity by oral dosing [9]: low risk of acute and chronic toxicity
acute and chronic toxicity by oral dosing [10]: low risk of acute and chronic toxicity
genotoxic effects [11]: No genotoxic effects
